Reference: ChEMBL document CHEMBL3885861, “Open TG-GATES”

Species on record: Rattus norvegicus
Experiment: Open TG-GATES - Regimen: Daily Repeat
Assay type: toxicity, organism-based, Sprague-Dawley
Parameters: regimen Daily Repeat, gender Male, age 6 weeks
Details: in vivo, po, route gavage; for APTT / Bas / Eos / Fbg / Hb / Ht / Lym / MCH / MCHC / MCV / Mono / Neu / PT / Plat / RBC / Ret / WBC: tissue Blood; for KIDNEY_L / KIDNEY_R / KIDNEY_TOTAL: tissue Kidney; for LIVER: tissue Liver; for A/G / ALP / ALT / AST / BUN / CRE / Ca / Cl / DBIL / GLC / IP / K / LDH / Na / PL / RALB / TBIL / TC / TG / TP / gamma-GTP: tissue Plasma
[1] = 150 mg/kg, 72 h, dose level Middle, time 3 day
[2] = 150 mg/kg, […], dose level Middle, time 7 day
[3] = 150 mg/kg, […], dose level Middle, time 14 day
[4] = 150 mg/kg, […], dose level Middle, time 28 day
[5] = 500 mg/kg, 72 h, dose level High, time 3 day
[6] = 500 mg/kg, […], dose level High, time 7 day
[7] = 500 mg/kg, […], dose level High, time 14 day
[8] = 500 mg/kg, […], dose level High, time 28 day

CN1C(=O)CCS(=O)(=O)C1c1ccc(Cl)cc1 (centres undefined) [CHLORMEZANONE]
TERMINAL_BW [1]: 226.1 g
APTT [1]: 15.7 s
Bas [1]: 0%
Eos [1]: 1%
Fbg [1]: 296.4 mg/dL
Hb [1]: 13.5 g/dL
Ht [1]: 39.4%
Lym [1]: 76%
MCH [1]: 21.8 pg
MCHC [1]: 34.1%
MCV [1]: 63.8 fL
Mono [1]: 2.8%
Neu [1]: 19.4%
PT [1]: 11.4 s
Plat [1]: 123.4 x10_4/uL
RBC [1]: 618 x10_4/ul
Ret [1]: 6.2%
WBC [1]: 86.7 x10_2/uL
KIDNEY_L [1]: 0.9 g
KIDNEY_R [1]: 0.9 g
KIDNEY_TOTAL [1]: 1.8 g
LIVER [1]: 13 g
A/G [1]: 0.9
ALP [1]: 1825 IU/L
ALT [1]: 52.2 IU/L
AST [1]: 69 IU/L
BUN [1]: 15.4 mg/dL
CRE [1]: 0.2 mg/dL
Ca [1]: 11.2 mg/dL
Cl [1]: 106.6 meq/L
DBIL [1]: 0.014 mg/dL
GLC [1]: 179.6 mg/dL
IP [1]: 7.1 mg/dL
K [1]: 4.5 meq/L
LDH [1]: 74.6 IU/L
Na [1]: 143 meq/L
PL [1]: 144 mg/dL
RALB [1]: 2.8 g/dL
TBIL [1]: 0.026 mg/dL
TC [1]: 80.4 mg/dL
TG [1]: 94.6 mg/dL
TP [1]: 5.9 g/dL
gamma-GTP [1]: 1.4 IU/L
TERMINAL_BW [2]: 265.5 g
TERMINAL_BW [3]: 313.6 g
TERMINAL_BW [4]: 389.8 g
APTT [2]: 17 s
Bas [2]: 0%
Eos [2]: 0.8%
Fbg [2]: 302.2 mg/dL
Hb [2]: 13.2 g/dL
Ht [2]: 39.4%
Lym [2]: 78.2%
MCH [2]: 21.3 pg
MCHC [2]: 33.5%
MCV [2]: 63.4 fL
Mono [2]: 3%
Neu [2]: 18%
PT [2]: 11.5 s
Plat [2]: 129.2 x10_4/uL
RBC [2]: 621 x10_4/ul
Ret [2]: 6.4%
WBC [2]: 79.7 x10_2/uL
APTT [3]: 19.7 s
Bas [3]: 0%
Eos [3]: 0.8%
Fbg [3]: 306.2 mg/dL
Hb [3]: 14 g/dL
Ht [3]: 40.1%
Lym [3]: 80%
MCH [3]: 21 pg
MCHC [3]: 34.8%
MCV [3]: 60.3 fL
Mono [3]: 2%
Neu [3]: 16.2%
PT [3]: 11.6 s
Plat [3]: 118.9 x10_4/uL
RBC [3]: 665.2 x10_4/ul
Ret [3]: 4.2%
WBC [3]: 102.9 x10_2/uL
APTT [4]: 17.9 s
Bas [4]: 0%
Eos [4]: 1%
Fbg [4]: 281 mg/dL
Hb [4]: 14.5 g/dL
Ht [4]: 41.2%
Lym [4]: 78.8%
MCH [4]: 19.7 pg
MCHC [4]: 35.3%
MCV [4]: 55.7 fL
Mono [4]: 2.2%
Neu [4]: 16.8%
PT [4]: 11.9 s
Plat [4]: 105.4 x10_4/uL
RBC [4]: 741.2 x10_4/ul
Ret [4]: 2.8%
WBC [4]: 97.2 x10_2/uL
KIDNEY_L [2]: 1 g
KIDNEY_R [2]: 1 g
KIDNEY_TOTAL [2]: 2 g
KIDNEY_L [3]: 1.2 g
KIDNEY_R [3]: 1.2 g
KIDNEY_TOTAL [3]: 2.4 g
KIDNEY_L [4]: 1.3 g
KIDNEY_R [4]: 1.3 g
KIDNEY_TOTAL [4]: 2.5 g
LIVER [2]: 14.4 g
LIVER [3]: 15.9 g
LIVER [4]: 18.1 g
A/G [2]: 0.9
ALP [2]: 1471.4 IU/L
ALT [2]: 46.2 IU/L
AST [2]: 63.6 IU/L
BUN [2]: 16.6 mg/dL
CRE [2]: 0.2 mg/dL
Ca [2]: 11.5 mg/dL
Cl [2]: 107.8 meq/L
DBIL [2]: 0.014 mg/dL
GLC [2]: 193.2 mg/dL
IP [2]: 6.9 mg/dL
K [2]: 4.2 meq/L
LDH [2]: 71.2 IU/L
Na [2]: 143.8 meq/L
PL [2]: 142.2 mg/dL
RALB [2]: 2.8 g/dL
TBIL [2]: 0.02 mg/dL
TC [2]: 80.6 mg/dL
TG [2]: 87 mg/dL
TP [2]: 6 g/dL
gamma-GTP [2]: 1.2 IU/L
A/G [3]: 0.8
ALP [3]: 1404.2 IU/L
ALT [3]: 52.2 IU/L
AST [3]: 63.4 IU/L
BUN [3]: 17.2 mg/dL
CRE [3]: 0.2 mg/dL
Ca [3]: 11.3 mg/dL
Cl [3]: 106.8 meq/L
DBIL [3]: 0.006 mg/dL
GLC [3]: 188.2 mg/dL
IP [3]: 7 mg/dL
K [3]: 4.3 meq/L
LDH [3]: 76.6 IU/L
Na [3]: 142.8 meq/L
PL [3]: 136.8 mg/dL
RALB [3]: 2.9 g/dL
TBIL [3]: 0.052 mg/dL
TC [3]: 74.4 mg/dL
TG [3]: 74.4 mg/dL
TP [3]: 6.3 g/dL
gamma-GTP [3]: 1 IU/L
A/G [4]: 0.9
ALP [4]: 1029.8 IU/L
ALT [4]: 46 IU/L
AST [4]: 58 IU/L
BUN [4]: 16.8 mg/dL
CRE [4]: 0.3 mg/dL
Ca [4]: 10.7 mg/dL
Cl [4]: 105.8 meq/L
DBIL [4]: 0.01 mg/dL
GLC [4]: 190.4 mg/dL
IP [4]: 5.8 mg/dL
K [4]: 4.1 meq/L
LDH [4]: 63.4 IU/L
Na [4]: 142.8 meq/L
PL [4]: 153.8 mg/dL
RALB [4]: 2.9 g/dL
TBIL [4]: 0.058 mg/dL
TC [4]: 83.4 mg/dL
TG [4]: 93.6 mg/dL
TP [4]: 6.4 g/dL
gamma-GTP [4]: 1 IU/L
TERMINAL_BW [5]: 218.1 g
APTT [5]: 22.2 s
Bas [5]: 0%
Eos [5]: 1%
Fbg [5]: 285.2 mg/dL
Hb [5]: 13.2 g/dL
Ht [5]: 38.9%
Lym [5]: 75.2%
MCH [5]: 21.2 pg
MCHC [5]: 33.9%
MCV [5]: 62.8 fL
Mono [5]: 3.2%
Neu [5]: 20.2%
PT [5]: 11.4 s
Plat [5]: 115.7 x10_4/uL
RBC [5]: 620.2 x10_4/ul
Ret [5]: 5.3%
WBC [5]: 90.9 x10_2/uL
KIDNEY_L [5]: 0.9 g
KIDNEY_R [5]: 0.9 g
KIDNEY_TOTAL [5]: 1.9 g
LIVER [5]: 13.5 g
A/G [5]: 0.9
ALP [5]: 1900.8 IU/L
ALT [5]: 60.6 IU/L
AST [5]: 77.2 IU/L
BUN [5]: 12.6 mg/dL
CRE [5]: 0.2 mg/dL
Ca [5]: 10.8 mg/dL
Cl [5]: 107.2 meq/L
DBIL [5]: 0.02 mg/dL
GLC [5]: 179.4 mg/dL
IP [5]: 6.9 mg/dL
K [5]: 4.3 meq/L
LDH [5]: 101.4 IU/L
Na [5]: 142 meq/L
PL [5]: 157.6 mg/dL
RALB [5]: 2.6 g/dL
TBIL [5]: 0.05 mg/dL
TC [5]: 84.6 mg/dL
TG [5]: 99.4 mg/dL
TP [5]: 5.6 g/dL
gamma-GTP [5]: 1.6 IU/L
TERMINAL_BW [6]: 254.1 g
TERMINAL_BW [7]: 312.8 g
TERMINAL_BW [8]: 364.7 g
APTT [6]: 22 s
Bas [6]: 0%
Eos [6]: 0.8%
Fbg [6]: 341.2 mg/dL
Hb [6]: 12.6 g/dL
Ht [6]: 37.3%
Lym [6]: 70.4%
MCH [6]: 20.9 pg
MCHC [6]: 33.9%
MCV [6]: 61.5 fL
Mono [6]: 3.2%
Neu [6]: 24.8%
PT [6]: 11.5 s
Plat [6]: 147.1 x10_4/uL
RBC [6]: 606.6 x10_4/ul
Ret [6]: 6.9%
WBC [6]: 116.2 x10_2/uL
APTT [7]: 24.3 s
Bas [7]: 0%
Eos [7]: 0.6%
Fbg [7]: 314.6 mg/dL
Hb [7]: 13.4 g/dL
Ht [7]: 38.7%
Lym [7]: 76.8%
MCH [7]: 20.6 pg
MCHC [7]: 34.8%
MCV [7]: 59.4 fL
Mono [7]: 3.6%
Neu [7]: 18.2%
PT [7]: 12 s
Plat [7]: 122.7 x10_4/uL
RBC [7]: 651.4 x10_4/ul
Ret [7]: 6.4%
WBC [7]: 112.6 x10_2/uL
APTT [8]: 28.5 s
Bas [8]: 0%
Eos [8]: 1.2%
Fbg [8]: 286.4 mg/dL
Hb [8]: 13 g/dL
Ht [8]: 37.8%
Lym [8]: 77%
MCH [8]: 20.2 pg
MCHC [8]: 34.5%
MCV [8]: 58.5 fL
Mono [8]: 1.8%
Neu [8]: 19.6%
PT [8]: 12.6 s
Plat [8]: 119.4 x10_4/uL
RBC [8]: 646.6 x10_4/ul
Ret [8]: 7.6%
WBC [8]: 126.7 x10_2/uL
KIDNEY_L [6]: 1 g
KIDNEY_R [6]: 1 g
KIDNEY_TOTAL [6]: 2 g
KIDNEY_L [7]: 1.2 g
KIDNEY_R [7]: 1.2 g
KIDNEY_TOTAL [7]: 2.4 g
KIDNEY_L [8]: 1.3 g
KIDNEY_R [8]: 1.3 g
KIDNEY_TOTAL [8]: 2.5 g
LIVER [6]: 16 g
LIVER [7]: 19 g
LIVER [8]: 20.4 g
A/G [6]: 0.9
ALP [6]: 1196.8 IU/L
ALT [6]: 48.2 IU/L
AST [6]: 59.8 IU/L
BUN [6]: 16.6 mg/dL
CRE [6]: 0.2 mg/dL
Ca [6]: 11.7 mg/dL
Cl [6]: 106 meq/L
DBIL [6]: 0.016 mg/dL
GLC [6]: 202.2 mg/dL
IP [6]: 7 mg/dL
K [6]: 4.2 meq/L
LDH [6]: 96.2 IU/L
Na [6]: 143.6 meq/L
PL [6]: 144.8 mg/dL
RALB [6]: 3 g/dL
TBIL [6]: 0.032 mg/dL
TC [6]: 80.6 mg/dL
TG [6]: 70.2 mg/dL
TP [6]: 6.3 g/dL
gamma-GTP [6]: 1.8 IU/L
A/G [7]: 0.9
ALP [7]: 1377.8 IU/L
ALT [7]: 57.2 IU/L
AST [7]: 62.4 IU/L
BUN [7]: 16.4 mg/dL
CRE [7]: 0.2 mg/dL
Ca [7]: 11.4 mg/dL
Cl [7]: 106 meq/L
DBIL [7]: 0.018 mg/dL
GLC [7]: 195.6 mg/dL
IP [7]: 7.1 mg/dL
K [7]: 4.2 meq/L
LDH [7]: 122.6 IU/L
Na [7]: 143.8 meq/L
PL [7]: 149 mg/dL
RALB [7]: 2.9 g/dL
TBIL [7]: 0.084 mg/dL
TC [7]: 75 mg/dL
TG [7]: 88 mg/dL
TP [7]: 6.4 g/dL
gamma-GTP [7]: 2 IU/L
A/G [8]: 0.8
ALP [8]: 1039.2 IU/L
ALT [8]: 55.2 IU/L
AST [8]: 59.6 IU/L
BUN [8]: 16.8 mg/dL
CRE [8]: 0.3 mg/dL
Ca [8]: 10.6 mg/dL
Cl [8]: 106.4 meq/L
DBIL [8]: 0.014 mg/dL
GLC [8]: 188.8 mg/dL
IP [8]: 6.1 mg/dL
K [8]: 4.2 meq/L
LDH [8]: 70.8 IU/L
Na [8]: 143.6 meq/L
PL [8]: 148 mg/dL
RALB [8]: 2.9 g/dL
TBIL [8]: 0.082 mg/dL
TC [8]: 76 mg/dL
TG [8]: 67 mg/dL
TP [8]: 6.5 g/dL
gamma-GTP [8]: 2.4 IU/L
